Test results taken from ChEMBL document CHEMBL1201862, “PubChem BioAssay data set” (2004).
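Interpolation was linear, between the two tested concentrations surrounding the appropriate level; five concentrations were tested over 48 hours in 96-well plates. At the GI50, growth is halved.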 Activity calls are given as the source filed them. Rule as the data show it: active = GI50 up to about 1.1 µM and inactive = higher.

Tests used:
Assay in all cases: NCI tumour cell line growth inhibition, 48 h
[1] = system: SNB-19
[2] = system: UACC-257
[3] = system: MDA-MB-231
[4] = system: MDA-N
[5] = system: HOP-92
[6] = system: HT-29
[7] = system: SF-539
[8] = system: NCI-H522
[9] = system: SK-MEL-5
[10] = system: NCI-H226
[11] = system: HCT-116
[12] = system: NCI-H460
[13] = system: 786-0
[14] = system: A549
[15] = system: EKVX
[16] = system: CCRF-CEM
[17] = system: SW-620
[18] = system: DU-145
[19] = system: MCF7
[20] = system: SK-MEL-28
[21] = system: KM12
[22] = system: LOX IMVI
[23] = system: Hs-578T
[24] = system: UO-31
[25] = system: OVCAR-3
[26] = system: MOLT-4
[27] = system: U-251
[28] = system: HCC 2998
[29] = system: SN12C
[30] = system: COLO 205
[31] = system: NCI-H23
[32] = system: BT-549
[33] = system: SF-268
[34] = system: HCT-15
[35] = system: HOP-62
[36] = system: RXF 393
[37] = system: SK-MEL-2
[38] = system: NCI/ADR-RES
[39] = system: PC-3
[40] = system: K562
[41] = system: HL-60
[42] = system: OVCAR-8
[43] = system: T47D
[44] = system: SF-295
[45] = system: SNB-75
[46] = system: A498
[47] = system: ACHN
[48] = system: Malme-3M
[49] = system: M14
[50] = system: MDA-MB-435
[51] = system: IGROV-1
[52] = system: OVCAR-4
[53] = system: SK-OV-3
[54] = system: UACC-62
[55] = system: TK-10
[56] = system: OVCAR-5
[57] = system: RPMI-8226
[58] = system: SR
[59] = system: CAKI-1

Measured: GI50

C(=N\N=C1NCCCN1)/c1ccc2ccccc2c1
inactive: [1] 14.7 µM | [2] 17.3 µM | [3] 6.32 µM | [4] 8.97 µM | [5] 10.3 µM | [6] 8.39 µM | [7] 16.8 µM | [8] 15.1 µM | [9] 3.47 µM | [10] 12.4 µM | [11] 10.4 µM | [12] 4.98 µM | [13] 11.7 µM | [14] 9.23 µM | [15] 14.1 µM | [16] 11.2 µM | [17] 12.4 µM | [18] 11 µM | [19] 3.4 µM | [20] 15.9 µM | [21] 13.6 µM | [22] 9.14 µM | [23] 16.9 µM | [24] 11.6 µM | [25] 14.7 µM | [26] 1.95 µM | [27] 6.53 µM | [28] 2.64 µM | [29] 12.4 µM | [30] 5.93 µM | [31] 17.6 µM | [32] 17.4 µM | [33] 14.2 µM | [35] 12.1 µM | [36] 15.5 µM | [37] 13.7 µM | [38] 19.4 µM | [39] 10.3 µM | [40] 3.48 µM | [41] 5.24 µM | [42] 14.7 µM | [43] 10.4 µM | [44] 11.4 µM | [45] 3.97 µM | [46] 3.01 µM | [47] 10.5 µM | [48] 18.2 µM | [49] 7.98 µM | [50] 5.89 µM | [51] 11.7 µM | [52] 19.3 µM | [53] 11.2 µM | [54] 13.5 µM | [55] 18.6 µM | [56] 8.69 µM | [57] 4.7 µM
13.7 µM: [34]

Clc1sc(Cl)c2c1[C@@H](Cl)C[C@@H]2Br
97.1 µM: [34]
inactive: [1] > 100 µM | [2] 70.1 µM | [3] > 100 µM | [4] 84.3 µM | [5] 37.4 µM | [6] > 100 µM | [8] 30.8 µM | [9] > 100 µM | [11] > 100 µM | [12] 71.1 µM | [13] > 100 µM | [14] 83.8 µM | [15] > 100 µM | [16] 33.3 µM | [17] 45.6 µM | [18] > 100 µM | [58] 18.8 µM | [19] 43.8 µM | [20] > 100 µM | [21] 90.6 µM | [22] 33.8 µM | [23] 65.8 µM | [24] > 100 µM | [26] 18.6 µM | [27] > 100 µM | [28] > 100 µM | [29] > 100 µM | [30] > 100 µM | [31] 61.4 µM | [32] > 100 µM | [33] > 100 µM | [35] > 100 µM | [36] 78.3 µM | [37] > 100 µM | [39] > 100 µM | [40] 34.2 µM | [42] > 100 µM | [43] 44.7 µM | [44] > 100 µM | [59] > 100 µM | [45] > 100 µM | [47] > 100 µM | [48] 22.8 µM | [49] > 100 µM | [50] 40.6 µM | [51] 72.9 µM | [52] > 100 µM | [53] > 100 µM | [54] 68.2 µM | [55] > 100 µM | [56] > 100 µM

O=c1oc2ccccc2c2nc3ccccc3cc12
> 100 µM: [34]
inactive: [1] 23.3 µM | [2] 96.6 µM | [3] 23 µM | [4] > 100 µM | [5] 31.3 µM | [6] 99.5 µM | [7] 11.6 µM | [8] 46.2 µM | [9] > 100 µM | [10] 37.4 µM | [11] 40.2 µM | [12] 37.8 µM | [13] 28.2 µM | [14] 99.8 µM | [15] 79.8 µM | [16] > 100 µM | [17] > 100 µM | [18] > 100 µM | [58] > 100 µM | [20] > 100 µM | [21] > 100 µM | [23] 25.9 µM | [24] 34.8 µM | [26] > 100 µM | [27] 30.1 µM | [28] 72.1 µM | [29] 99.1 µM | [30] > 100 µM | [31] > 100 µM | [32] 51.2 µM | [33] > 10 µM | [36] 29.2 µM | [37] > 100 µM | [38] 97.7 µM | [39] 56.2 µM | [40] > 100 µM | [41] > 100 µM | [42] 46.7 µM | [43] > 100 µM | [44] 34.8 µM | [59] 33.8 µM | [46] 33 µM | [47] 31 µM | [48] > 100 µM | [49] > 100 µM | [50] > 100 µM | [51] 35 µM | [52] 22.1 µM | [53] 51.9 µM | [54] 35.3 µM | [55] 58.7 µM | [56] > 100 µM | [57] > 100 µM

COc1cc2c(c(OC)c1)C(C)=NC(C)C2 (stereo not given)
> 100 µM: [34]
inactive: [1] > 100 µM | [2] > 100 µM | [3] > 100 µM | [4] > 100 µM | [6] > 100 µM | [7] > 100 µM | [8] 76.7 µM | [9] > 100 µM | [10] > 100 µM | [11] 51.2 µM | [12] > 100 µM | [13] > 100 µM | [14] > 100 µM | [15] > 100 µM | [16] > 100 µM | [17] > 100 µM | [18] > 100 µM | [58] > 100 µM | [19] > 100 µM | [20] > 100 µM | [21] > 100 µM | [22] > 100 µM | [23] > 100 µM | [24] > 100 µM | [26] > 100 µM | [28] > 100 µM | [29] > 100 µM | [30] > 100 µM | [31] > 100 µM | [32] > 100 µM | [33] > 100 µM | [35] > 100 µM | [39] > 100 µM | [40] > 100 µM | [41] > 100 µM | [42] > 100 µM | [43] > 100 µM | [44] > 100 µM | [59] > 100 µM | [46] > 100 µM | [47] > 100 µM | [48] > 100 µM | [49] > 100 µM | [50] > 100 µM | [51] > 100 µM | [53] > 100 µM | [54] > 100 µM | [55] > 100 µM | [57] > 100 µM

Cc1ccc(S(=O)(=O)NC(=O)NC(C(=O)O)C(C)O)cc1 (stereo not given)
> 100 µM: [34]
inactive: [1] > 100 µM | [2] > 100 µM | [3] > 100 µM | [4] > 100 µM | [5] > 100 µM | [6] > 100 µM | [7] > 100 µM | [8] > 100 µM | [9] > 100 µM | [11] > 100 µM | [12] > 100 µM | [13] > 100 µM | [14] > 100 µM | [16] > 100 µM | [17] > 100 µM | [18] > 100 µM | [58] > 100 µM | [19] > 100 µM | [20] > 100 µM | [21] > 100 µM | [22] > 100 µM | [23] > 100 µM | [24] > 100 µM | [26] > 100 µM | [27] > 100 µM | [29] > 100 µM | [30] > 100 µM | [31] > 100 µM | [32] > 100 µM | [33] > 100 µM | [35] > 100 µM | [36] > 100 µM | [37] > 100 µM | [38] > 100 µM | [39] > 100 µM | [40] > 100 µM | [41] > 100 µM | [42] > 100 µM | [43] > 100 µM | [44] > 100 µM | [45] 33.3 µM | [47] > 100 µM | [48] > 100 µM | [49] > 100 µM | [51] > 100 µM | [52] > 100 µM | [53] > 100 µM | [54] > 100 µM | [55] > 100 µM | [56] > 100 µM | [57] > 100 µM
